Patent publication US4596806A, “7-piperidino-1,2,3,5-tetrahydroimidazo[2,1-b]-quinazolin-2-one having platelet aggregation inhibitory activity” (Daiichi Seiyaku Co., Ltd., priority 1983, dated 1986)
Counter-ions that a name gives are not always drawn. Like-named read-outs stand apart in the source and are kept apart here.

Legend:
[1] = test system: platelet aggregation; assay: Test of Platelet Aggregation Inhibition (in vitro), human PRP; format: cell-based; conditions: for IC50: Homo sapiens, Platelet, human blood, read-out: Platelet Aggregation Inhibitory Activity (in vitro: IC50)
Method: (§1) The test was performed as follows in accordance with the method of Ashida et al, Thrombosis and Haemostasis, Vol. 40, p542 (1979).
(§2) Blood was taken by puncture from the heart of a Wistar Imamichi rat under anesthesia with pentobarbital into a syringe containing 1/10 volume of a 3.13% aqueous solution of sodium citrate dihydrate, and the citrated blood was centrifuged to obtain a platelet-rich-plasma (PRP). In the same manner, citrated blood was collected from the vein of a healthy human who had not taken aspirin or any other anti-inflammatory agent since before 10 days, followed by centrifugation to obtain PRP. 0.005 ml of each test compound was added to 0.445 ml each of these PRP samples, and the system was warmed at 30° C. for 1 minute. 0.05 ml of an aggregation inducer (ADP or collagen) was then added thereto, and platelet aggregation was determined according to the method of Born, Nature, Vol. 194, p927 (1962). The inhibitory activity of platelet aggregation was expressed in terms of 50% inhibition concentration, and the results obtained are shown in Table 2.

[2] = test system: platelet aggregation; assay: Test of Platelet Aggregation Inhibition (in vitro), rat PRP; format: cell-based, rat (Wistar Imamichi); conditions: rat blood, read-out: Platelet Aggregation Inhibitory Activity (in vitro: IC50)
Method: as §1, §2

[3] = Solubility Test (water-solubility); format: physicochemical
[4] = test system: circulatory system; assay: Test of Influence on Circulatory System (blood pressure, heart beat); format: in vivo, rat (male normal SLC-Wistar); conditions: p.o. 50 mg/Kg
Method: 5 or 6 male normal SLC-Wistar rats per group (body weight: 205-255 g) orally received 50 mg/Kg of the test compound, and the blood pressure (tail cuff method) and the heart beats were measured with the passage of time in order to elucidate influences of the test compound on the circulatory system.

[5] = test system: platelet aggregation; assay: Test of Platelet Aggregation Inhibition (ex vivo, p.o.); format: in vivo, rat (male Wistar Imamichi); conditions: for inhibition at 1 mg/kg / inhibition at 10 mg/kg: Rattus norvegicus, Platelet, po, 1 h, read-out: Platelet Aggregation Inhibitory Activity (ex vivo: % inhibition); for inhibition at 1 mg/kg: p.o. 1 mg/Kg; for inhibition at 10 mg/kg: p.o. 10 mg/Kg; for aggregation inhibitory activity ex vivo (in words): p.o. 10 mg/Kg or 1 mg/Kg, ADP- or collagen-induced
Method: One hour later, citrated blood was taken from the heart, and platelet aggregation was determined in the same manner as described in Test Example 2.

[6] = pH 2, Tap Water, solution pH about 2

Structure (SMILES) | IC50 ([1]; inducer ADP) [µM] | IC50 ([1]; inducer collagen) [µM] | IC50 ([2]; inducer ADP) [µM] | IC50 ([2]; inducer collagen) [µM] | solubility ([3]; Water at pH 4) [µg/mL] | solubility [3, 6] [µg/mL] | Increase in Heart Beat ([4]; 1 hr after admin.) [%] | Reduction in Blood Pressure ([4]; 1 hr after admin.) [%] | Increase in Heart Beat ([4]; 2 hr after admin.) [%] | Reduction in Blood Pressure ([4]; 2 hr after admin.) [%] | Increase in Heart Beat ([4]; 3 hr after admin.) [%] | Reduction in Blood Pressure ([4]; 3 hr after admin.) [%] | Increase in Heart Beat ([4]; 5 hr after admin.) [%] | Reduction in Blood Pressure ([4]; 5 hr after admin.) [%] | Increase in Heart Beat ([4]; 6 hr after admin.) [%] | Reduction in Blood Pressure ([4]; 6 hr after admin.) [%] | inhibition at 1 mg/kg ([5]; inducer ADP) [%] | inhibition at 1 mg/kg ([5]; inducer collagen) [%] | inhibition at 10 mg/kg ([5]; inducer ADP) [%] | inhibition at 10 mg/kg ([5]; inducer collagen) [%] | further results
Cl.Cl.Nc1ccc2c(c1)CN1CC(=O)NC1=N2 [BL-7-NH2, 7-amino-1,2,3,5-tetrahydroimidazo[2,1-b]quinazolin-2-one dihydrochloride] | 50 | 28 | 170 | 16 |  |  |  |  |  |  |  |  |  |  |  |  |  |  |  |  | anti-platelet aggregation activity (in words) ([1]; in vitro, Table 2 results (human and rat PRP)): scarcely exhibits platelet aggregation inhibitory activity
Cc1cccc2c1CN1CC(=O)NC1=N2.Cl [BL-3459, 6-methyl-1,2,3,5-tetrahydroimidazo[2,1-b]quinazolin-2-one hydrochloride] | 1.7 | 0.7 | 5 | 0.76 | 10 | 100 | 18 | 23 | 20 | 28 | 17 | 26 | 18 | 34 | 19 | 35 | 12 | 41 | 31 | 54 | Reduction in Blood Pressure ([4]; 24 hr after admin.): 12%; aggregation inhibitory activity ex vivo (in words) [5]: cannot be regarded significant
O=C1CN2Cc3c(ccc(Cl)c3Cl)N=C2N1 [BL-4162, 6,7-dichloro-1,2,3,5-tetrahydro[2,1-b]quinazolin-2-one hydrochloride] | 1.2 | 0.5 | 0.8 | 0.02 | 10 | 10 | 28 | 11 | 37 | 16 | 31 | 17 | 31 | 14 | 31 | 13 | 10 | 33 | 8 | 53 | Increase in Heart Beat ([4]; 4 hr after admin.): 37%; Reduction in Blood Pressure ([4]; 4 hr after admin.): 14%; aggregation inhibitory activity ex vivo (in words) [5]: cannot be regarded significant
